The results in this text go back to patent US9084770B2, “Modulation of insulin like growth factor I receptor expression in cancer” (Antisense Therapeutics, Ltd., priority 2008, dated 2015).

This data set relates to human IGF-IR mRNA. Put plainly: Antisense inhibition of human IGF-IR mRNA levels by quantitative RT-PCR (Table 1). The arrangement: %INHIB (human IGF-IR mRNA levels): concentration or dose not given beside the values. The data set is classed as cell-based. Particulars: for %INHIB (human IGF-IR mRNA levels): quantitative RT-PCR, averages from 3 experiments; for inhibition of IGF-IR expression (lead compounds): as shown in Table 1. An excerpt:
Treatment of A549 cell cultures with oligonucleotides targeting IGF-IR is as described in WO 2004/072284.
Quantitation of IGF-IR mRNA levels was accomplished by RT-PCR using the ABI PRISM (trademark) 7600, 7700, or 7900 Sequence Detection System (PE-Applied Biosystems, Foster City, Calif.) according to manufacturer's instructions. This is a closed-tube, non-gel-based, fluorescence detection system which allows high-throughput quantitation of PCR products in real-time. As opposed to standard PCR in which amplification products are quantitated after the PCR is completed, products in real-time quantitative PCR are quantitated as they accumulate. This is accomplished by including in the PCR reaction an oligonucleotide probe that anneals specifically between the forward and reverse PCR primers, and contains two fluorescent dyes. A reporter dye (e.g., FAM or JOE, obtained from either PE-Applied Biosystems, Foster City, Calif., Operon Technologies Inc., Alameda, Calif. or Integrated DNA Technologies Inc., Coralville, Iowa) is attached to the 5′-end of the probe and a quencher dye (e.g., TAMRA, obtained from either PE-Applied Biosystems, Foster City, Calif., Operon Technologies Inc., Alameda, Calif. or Integrated DNA Technologies Inc., Coralville, Iowa) is attached to the 3′-end of the probe. When the probe and dyes are intact, reporter dye emission is quenched by the proximity of the 3′ quencher dye. During amplification, annealing of the probe to the target sequence creates a substrate that can be cleaved by the 5′-exonuclease activity of Taq polymerase. […] With each cycle, additional reporter dye molecules are cleaved from their respective probes, and the fluorescence intensity is monitored at regular intervals by laser optics built into the ABI PRISM (trademark) Sequence Detection System. In each assay, a series of parallel reactions containing serial dilutions of mRNA from untreated control samples generates a standard curve that is used to quantitate the percent inhibition after antisense oligonucleotide treatment of test samples.
PCR reagents were obtained from Invitrogen Corporation, (Carlsbad, Calif.). RT-PCR reactions were carried out by adding 20 μL PCR cocktail (2.5×PCR buffer minus MgCl2, 6.6 mM MgCl2, 375 μM each of dATP, dCTP, […] and dGTP, 375 nM each of forward primer and reverse primer, 125 nM of probe, 4 Units RNAse inhibitor, 1.25 Units PLATINUM (registered trademark) Taq, 5 Units MuLV reverse transcriptase, and 2.5×ROX dye) to 96-well plates containing 30 μL total RNA solution (20-200 ng). The RT reaction was carried out by incubation for 30 minutes at 48° C. Following a 10 minute incubation at 95° C. to activate the PLATINUM (trademark) Taq, 40 cycles of a two-step PCR protocol were carried out: 95° C. for 15 seconds (denaturation) followed by 60° C. for 1.5 minutes (annealing/extension).
Gene target quantities obtained by RT-PCR are normalized using either the expression level of GAPDH, a gene whose expression is constant, or by quantifying total RNA using RiboGreen (trademark) (Molecular Probes, Inc. Eugene, Oreg.). GAPDH expression is quantified by RT-PCR, by being run simultaneously with the target, multiplexing, or separately. Total RNA is quantified using RiboGreen (trademark) RNA quantification reagent (Molecular Probes, Inc. Eugene, Oreg.). Methods of RNA quantification by RiboGreen (trademark) are taught in Jones et al., 1998.
Probes and primers to human IGF-IR were designed to hybridize to the IGF-IR nucleotide sequence, using published sequence information (GenBank accession number NM000875 (SEQ ID NO:76) or M69229 (SEQ ID NO:77) which is the 5′ untranslated of the IGF-IR gene sequence (see FIG. 6).
In accordance with the present invention, a series of antisense compounds were designed to target different regions of the human IGF-IR mRNA or the 5′ untranslated region, using published sequences set forth in NM000875 (SEQ ID NO:77) and M69229 (SEQ ID NO:76). […]

Strand notation (5' to 3'): a small letter for the sugar, then the base; units joined by * are phosphorothioate-linked, units joined directly phosphodiester-linked; [ ] holds rarer units or linkages, { } end groups; capitals alone tell only the bases. e = 2'-O-(2-methoxyethyl) (MOE); [5mC] = 5-methylcytosine; d = 2'-deoxy (DNA)

For “175292 (antisense AGTCTCAAACTCAGTCTTCG; listed as DNA, chemistry not fully specified) [compound 175292]”, the “%INHIB (human IGF-IR mRNA levels)” value came out at 78%.

As to “175293 (antisense GTTAATGCTGGTAAACAAGA; listed as DNA, chemistry not fully specified) [compound 175293]”, the “%INHIB (human IGF-IR mRNA levels)” value came out at 40%. Consider “175294 (antisense GAAGTCCGGGTCACAGGCGA; listed as DNA, chemistry not fully specified) [compound 175294]”, for which the “%INHIB (human IGF-IR mRNA levels)” value came out at 77%. For the substance “175295 (antisense AACAAGAGCCCCAGCCTCGC; listed as DNA, chemistry not fully specified) [compound 175295]”, the “%INHIB (human IGF-IR mRNA levels)” value turned out to be 76%. For “175296 (antisense ATGCTGGTAAACAAGAGCCC; listed as DNA, chemistry not fully specified) [compound 175296]”, the “%INHIB (human IGF-IR mRNA levels)” value is 57%. Regarding “175297 (antisense TGCTGGTAAACAAGAGCCCC; listed as DNA, chemistry not fully specified) [compound 175297]”, the “%INHIB (human IGF-IR mRNA levels)” value is on record as 61%.

“175298 (antisense GGAGTCAAAATGAATGAGCG; listed as DNA, chemistry not fully specified) [compound 175298]”: the “%INHIB (human IGF-IR mRNA levels)” value is recorded as 74%. Regarding “175299 (antisense AATCTGCCTAGGCGAGGAAA; listed as DNA, chemistry not fully specified) [compound 175299]”, the “%INHIB (human IGF-IR mRNA levels)” value is 78%. On the same count and under the same terms, in the case of “175300 (antisense GCTGGTAAACAAGAGCCCCA; listed as DNA, chemistry not fully specified) [compound 175300]” it was 54%. Take “175301 (antisense AGCCCAAATCTGCCTAGGCG; listed as DNA, chemistry not fully specified) [compound 175301]”: the “%INHIB (human IGF-IR mRNA levels)” value was 77%. In the case of “175302 (antisense CCTCCATTTTCAAACCCGGA; listed as DNA, chemistry not fully specified) [compound 175302]”, the “inhibition of IGF-IR expression (lead compounds)” value (“inhibition of IGF-IR expression” below) was “demonstrated inhibition” and the “%INHIB (human IGF-IR mRNA levels)” value is 93%. Consider “175303 (antisense GAAGGTCACAGCCGAGGCGA; listed as DNA, chemistry not fully specified) [compound 175303]”, for which the “%INHIB (human IGF-IR mRNA levels)” value stood at 82%. Regarding “175304 (antisense TCGCTGAAGGTCACAGCCGA; listed as DNA, chemistry not fully specified) [compound 175304]”, the “%INHIB (human IGF-IR mRNA levels)” value amounted to 76%. With “175305 (antisense ATCCAGGACACACACAAAGC; listed as DNA, chemistry not fully specified) [compound 175305]”, the “%INHIB (human IGF-IR mRNA levels)” value is reported as 81%.

Turning to “175306 (antisense AAGTCCGGGTCACAGGCGAG; listed as DNA, chemistry not fully specified) [compound 175306]”, the “%INHIB (human IGF-IR mRNA levels)” value is reported as 54%.

Consider “175307 (antisense AAGTCTCAAACTCAGTCTTC; listed as DNA, chemistry not fully specified) [compound 175307]”, for which the “inhibition of IGF-IR expression” value is “demonstrated inhibition” and the “%INHIB (human IGF-IR mRNA levels)” value came to 86%.

For the substance “175308 (antisense GTCGTCGGCCTCCATTTTCA; listed as DNA, chemistry not fully specified) [compound 175308]”, the “inhibition of IGF-IR expression” value is given as “demonstrated inhibition” and the “%INHIB (human IGF-IR mRNA levels)” value is reported as 94%. On to “175309 (antisense GCAGAAACGCGGAGTCAAAA; listed as DNA, chemistry not fully specified) [compound 175309]”, for which the “%INHIB (human IGF-IR mRNA levels)” value is reported as 72%. Still for that read-out and setting: in the case of “175310 (antisense GCGGCGAGCTCCTTCCCAAA; listed as DNA, chemistry not fully specified) [compound 175310]” it was 76%; in that of “175311 (antisense TAATGCTGGTAAACAAGAGC; listed as DNA, chemistry not fully specified) [compound 175311]”, 53%; in that of “175312 (antisense TTTCAAACCCGGAGAGGCAG; listed as DNA, chemistry not fully specified) [compound 175312]”, 31%.

Take “175313 (antisense TAGGCGAGGAAAAACAAGCC; listed as DNA, chemistry not fully specified) [compound 175313]”: the “%INHIB (human IGF-IR mRNA levels)” value was 62%. Consider “175314 (antisense e[5mC]*eT*e[5mC]*eG*e[5mC]*dT*dG*dA*dA*dG*dG*dT*d[5mC]*dA*d[5mC]*eA*eG*e[5mC]*e[5mC]*eG) [compound 175314]”, for which the “inhibition of IGF-IR expression” value is “demonstrated inhibition” and the “%INHIB (human IGF-IR mRNA levels)” value worked out at 87%.

Regarding “175315 (antisense GCAGCGGCCCAGGGCTCGGC; listed as DNA, chemistry not fully specified) [compound 175315]”, the “%INHIB (human IGF-IR mRNA levels)” value came to 75%. “175316 (antisense GCTCGCTGAAGGTCACAGCC; listed as DNA, chemistry not fully specified) [compound 175316]”: the “inhibition of IGF-IR expression” value is “demonstrated inhibition” and the “%INHIB (human IGF-IR mRNA levels)” value stood at 82%. On the same counts, the results for “175317 (antisense CGAAGGAAACAATACTCCGA; listed as DNA, chemistry not fully specified) [compound 175317]” are “demonstrated inhibition” and 84%. “175318 (antisense GAAACGCGGAGTCAAAATGA; listed as DNA, chemistry not fully specified) [compound 175318]”: the “%INHIB (human IGF-IR mRNA levels)” value is 68%. As for “175319 (antisense GAAACAATACTCCGAAGGGC; listed as DNA, chemistry not fully specified) [compound 175319]”, the “%INHIB (human IGF-IR mRNA levels)” value is on record as 63%.

Take “175320 (antisense CCAAATCCAGGACACACACA; listed as DNA, chemistry not fully specified) [compound 175320]”: the “%INHIB (human IGF-IR mRNA levels)” value was found to be 64%. Consider “175321 (antisense TCGGCCTCCATTTTCAAACC; listed as DNA, chemistry not fully specified) [compound 175321]”, for which the “%INHIB (human IGF-IR mRNA levels)” value worked out at 78%.

Consider “175322 (antisense TCCGGGTCACAGGCGAGGCC; listed as DNA, chemistry not fully specified) [compound 175322]”, for which the “%INHIB (human IGF-IR mRNA levels)” value is given as 67%. As to “175323 (antisense AATGAATGAGCGGCTCCCCC; listed as DNA, chemistry not fully specified) [compound 175323]”, the “inhibition of IGF-IR expression” value is recorded as “demonstrated inhibition” and the “%INHIB (human IGF-IR mRNA levels)” value was found to be 82%. Take “175324 (antisense TGAAGGTCACAGCCGAGGCG; listed as DNA, chemistry not fully specified) [compound 175324]”: the “%INHIB (human IGF-IR mRNA levels)” value was determined as 57%.
